Data: article PMC6268314, “Diterpenoids from the Buds of Pinus banksiana Lamb” (Molecules, 2012)

What was measured:
Assay type in all cases: cell-based
[1] = test system: DLD-1, human colorectal adenocarcinoma cell line; test: Cytotoxicity assay (Hoechst DNA assay), DLD-1; settings: concentration inhibiting 50% cell growth, 48 h, mean of three independent assays; for IC50: Homo sapiens, DLD-1
Description: (§1) P. banksiana buds were extracted successively with hexanes, CH2Cl2 and MeOH. After solvent evaporation, each extract was investigated for in vitro cytotoxic and antibacterial activities. Cytotoxic activity evaluations were carried out on lung cancer (A549), colorectal cancer (DLD-1) and normal skin fibroblasts (WS1) human cell lines using the Hoechst assay. Antibacterial activity was evaluated against Escherichia coli and Staphylococcus aureus. […] Therefore, following studies were focused on the CH2Cl2 extract that was further separated over column chromatography on silica gel to afford eleven fractions (A–K). All fractions activities were tested against both cancer cell lines and bacterial strains. […] In a next step, fractions F, G, H and K were separated by a combination of chromatographic procedures to afford the three new compounds 1–3 together with 12 known compounds. The structures of the new compounds were determined as follows and the known products were identified by comparison of their spectroscopic data with values found in the literature.
(§2) Lung carcinoma (A549), colorectal adenocarcinoma (DLD-1) and normal skin fibroblast (WS1) human cell lines were obtained from the American Type Culture Collection (ATCC). All cell lines were cultured in minimum essential medium containing Earle’s salts and L-glutamine (Mediatech Cellgro, VA, USA), to which were added 10% fetal bovine serum (Hyclone), vitamins (1X), penicillin (100 I.U./mL) and streptomycin (100 µg/mL), essential amino acids (1X) and sodium pyruvate (1X) (Mediatech Cellgro, VA). Cells were kept at 37 °C in a humidified environment containing 5% CO2. Antibacterial activity was tested on Escherichia coli ATCC 25922 and Staphylococcus aureus ATCC 25923E.
(§3) Exponentially growing cells were plated on 96-well microplates (BD Falcon) at a density of 5 × 10^3 cells per well in 100 μL of culture medium (DMEM with 10% SVF) and were allowed to adhere for 24 h before treatment. Increasing concentrations of each compound in MeOH or DMSO were then added (100 μL per well) and cells were incubated for 48 h. The final concentration of MeOH or DMSO in the culture medium was maintained at 0.25% (v/v) to avoid solvent toxicity. Microplates were then emptied and stored at −80 °C for 24 h. In a next step, 100 μL of SDS (0.01%) were added and the microplates were incubated at room temperature during 3 h before being put back to the cold. After 24 h, cells were prepared for cellular DNA assay with 100 μL of Hoechst dye 33342. Measurements were performed on the same labsystems at 365 and 460 nm wavelengths. Survival percentage was defined as the fluorescene in experimental wells compared to the control wells after subtraction of the blank values. Etoposide was used as positive control. Each experiment was carried out two times in triplicata. IC50 results were expressed as averaged values and the corresponding standard deviations were computed.

[2] = test system: Staphylococcus aureus ATCC 25923; test: Antibacterial microdilution assay (resazurin), S. aureus; settings: 6 h at 37 °C
Description: as §2
(§4) Antibacterial activity was evaluated using the microdilution method described by Banfi et al. with some modifications. Exponentially growing bacteria were plated in 96-well flat bottom microplates (BD Flacon) at a density of 5 × 10^3 gram-negative E. coli (ATCC 25922) or 40 × 10^3 gram-positive S. aureus (ATCC 25923) per well in 100 μL nutrient broth (Difco). The concentration of ethanol in the culture medium was maintained at 0.25% (v/v) to avoid solvent toxicity. Thereafter, 50 μL of 4% resazurin was added to each well and the microplates were incubated for 6 h at 37 °C. Fluorescence was measured after 6 h with an automated 96-well Fluoroskan Ascent Fl™ plate reader (Labsystems) using 530 and 590 nm excitation and emission wavelengths.

[3] = test system: Escherichia coli ATCC 25922; test: Antibacterial microdilution assay (resazurin), E. coli; settings: 6 h at 37 °C
Description: as §2, §4

[4] = test system: A549, human lung carcinoma cell line; test: Cytotoxicity assay (Hoechst DNA assay), A549; settings: for IC50: Homo sapiens, A549, concentration inhibiting 50% cell growth, 48 h, mean of three independent assays
Description: as §1, §2, §3

[5] = test system: WS1, human normal skin fibroblasts; test: Cytotoxicity assay (Hoechst DNA assay), WS1; settings: Skin fibroblast, concentration inhibiting 50% cell growth, 48 h, mean of three independent assays
Description: as §1, §2
as §3, with “Each experiment was carried out two times in triplicata.” left out

IC50 ([2]; ATCC25923, isolated compounds) [µM]	IC50 ([3]; ATCC25922, isolated compounds) [µM]	IC50 ([2]; ATCC25923, extracts and fractions) [µg/mL]	IC50 ([3]; ATCC25922, extracts and fractions) [µg/mL]	SMILES	IC50 ([1]; isolated compounds) [µM]	IC50 ([4]; isolated compounds) [µM]	IC50 ([5]; isolated compounds) [µM]	IC50 ([1]; extracts and fractions) [µg/mL]	IC50 ([4]; extracts and fractions) [µg/mL]	IC50 ([5]; extracts and fractions) [µg/mL]	IC50 DLD-1 ([1]; isolated compounds)	cytotoxicity against lung carcinoma A549 (in words) ([4]; isolated compounds)
> 100	> 100			CC(C)(O)c1ccc2c(c1)C(=O)CC1[C@](C)(C(=O)O)CCC[C@]21C (stereo partly shown) [Compound 15, 15-hydroxy-7-oxo-abieta-8,11,13-trien-18-oic acid]	> 100	> 100	> 100					
> 100	> 100			CC(C)(O)c1ccc2c(c1)[C@@H](O)CC1[C@](C)(C(=O)O)CCC[C@]21C (stereo partly drawn) [Compound 6, 7β,15-dihydroxydehydroabietic acid]	> 100	> 100	> 100					
> 100	> 100			CC(C)(O)c1ccc2c(c1)C(O)CC1C(C)(CO)CCCC21C (stereo not drawn) [Compound 2, 7β,15,18-trihydroxyabieta-8,11,13-triene]	> 100	> 100	> 100					
> 100	> 100			CC(C)(O)c1ccc2c(c1)C(=O)CC1[C@](C)(CO)CCC[C@]21C (stereo partly shown) [Compound 14, 15,18-dihydroxyabieta-8,11,13-trien-7-one]	> 100	> 100	> 100					
> 100	> 100			CC(C)(O)c1ccc2c(c1)C(=O)C[C@H]1[C@](C)(O)CCC[C@]21C [Compound 13, 18-nor-4,15-dihydroxyabieta-8,11,13-trien-7-one]	> 100	46 ± 3	> 100				not to DLD-1	moderate cytotoxicity
> 100	> 100			CC(C)(O)c1ccc2c(c1)[C@H](O)CC1[C@](C)(C(=O)O)CCC[C@]21C (stereo partly drawn) [Compound 5, 7α,15-dihydroxydehydroabietic acid]	> 100	> 100	> 100					
> 100	> 100			CC(C)(O)c1ccc2c(c1)CC[C@H]1[C@](C)(C(=O)O)CCC[C@]21C [Compound 7, 15-hydroxydehydroabietic acid]	> 100	98 ± 2	> 100					

More lines, now with the values behind:

SMILES	IC50 ([2]; ATCC25923, isolated compounds) [µM]	IC50 ([3]; ATCC25922, isolated compounds) [µM]	IC50 ([2]; ATCC25923, extracts and fractions) [µg/mL]	IC50 ([3]; ATCC25922, extracts and fractions) [µg/mL]	IC50 ([1]; isolated compounds) [µM]	IC50 ([4]; isolated compounds) [µM]	IC50 ([5]; isolated compounds) [µM]	IC50 ([1]; extracts and fractions) [µg/mL]	IC50 ([4]; extracts and fractions) [µg/mL]	IC50 ([5]; extracts and fractions) [µg/mL]	IC50 DLD-1 ([1]; isolated compounds)	cytotoxicity against lung carcinoma A549 (in words) ([4]; isolated compounds)
CC(C)c1ccc2c(c1)[C@@H](O)CC1[C@](C)(C(=O)O)CCC[C@]21C (stereo partly drawn) [Compound 11, 7β-hydroxydehydroabietic acid]	> 100	> 100			> 100	> 100	> 100					
O=C(N[C@H](CO)[C@H](O)c1ccc([N+](=O)[O-])cc1)C(Cl)Cl [Chloramphenicol, reference compound]	> 5	0.37 ± 0.06	> 1.6	0.12 ± 0.02								
COc1cc([C@@H]2c3cc4c(cc3[C@@H](O[C@@H]3O[C@@H]5CO[C@@H](C)O[C@H]5[C@H](O)[C@H]3O)[C@H]3COC(=O)[C@H]23)OCO4)cc(OC)c1O [Etoposide, reference compound]					2.9 ± 0.5	0.7 ± 0.3	10 ± 2	1.7 ± 0.3	0.4 ± 0.2	5.9 ± 0.6		
C[C@@]1(CO)CCC[C@]2(C)c3ccc(O)cc3CCC12 (stereo partly shown) [Compound 3]	> 100	> 100			> 100	> 100	> 100					
CC(C)c1ccc2c(c1)[C@H](O)CC1[C@](C)(C(=O)O)CCC[C@]21C (stereo partly drawn) [Compound 10, 7α-hydroxydehydroabietic acid]	> 100	> 100			> 100	> 100	> 100					
CC(C)c1ccc2c(c1)C(=O)C[C@H]1[C@](C)(CO)CCC[C@]21C [Compound 12, 7-oxodehydroabietinol]	> 100	> 100			47 ± 9	34 ± 4	> 100					moderate cytotoxicity
C=C(C)c1ccc2c(c1)[C@H](O)CC1[C@](C)(C(=O)O)CCC[C@]21C (stereo partly drawn) [Compound 1, 7α-hydroxyabieta-8,11,13,15-tetraen-18-oic acid]	> 100	> 100			> 100	> 100	> 100					
CC(C)(O)c1ccc2c(c1)[C@H](O)CC1[C@](C)(C=O)CCC[C@]21C (stereo partly drawn) [Compound 4, 7α,15-dihydroxyabieta-8,11,13-trien-18-al]	> 100	> 100			> 100	> 100	> 100					
CC(C)c1ccc2c(c1)[C@H](O)CC1[C@](C)(O)CCC[C@]21C (stereo partly drawn) [Compound 8, 18-nor-abieta-8,11,13-triene-4,7α-diol]	> 100	> 100			91 ± 9	63 ± 7	> 100					
CC(C)c1ccc2c(c1)[C@@H](O)CC1[C@](C)(O)CCC[C@]21C (stereo partly drawn) [Compound 9, 18-nor-abieta-8,11,13-triene-4,7β-diol]	> 100	> 100			> 100	> 100	> 100					
